Experimental data as given in patent US8324345B2, “HLA-binding peptide, precursor thereof, DNA fragment and recombinant vector encoding the same” (priority 2006, dated 2012).
No end group written: not given here.

Legend:
[1] = system: human HLA-A type molecule; assay: Binding experiments, summary statement for HLA-A type molecules; details: summary of the binding experiments
Procedure: The peptides' binding affinity to an HLA-A24 molecule (the product of HLA-A*2402 gene) was measured by using C1R-A24 cells that express the HLA-A*2402 gene (produced by and provided with permission of Professor Masafumi Takiguchi, Kumamoto University).

[2] = molecular target: HLA-A2 molecule (the product of HLA-A*0206 gene) (Homo sapiens, UniProt P04439, D140Y/D185E/D98H/E176V/E277Q/F33Y/G131W/G231S/I119V/I121R/I166T/I218V/L300P/L318F/N151K/N90K/P208A/P217A/Q86G/Q94H/R138H/R169H/T345S); assay: cell-based
Procedure: The peptides' binding affinity to an HLA-A2 molecule (the product of HLA-A*0206 gene) was measured by using RA2.6 cells (a newly prepared cell line at Kochi University) that express the HLA-A*0206 gene, which were created by expressing cDNA of the HLA-A*0206 gene in RAMS cells, the mouse TAP peptide transporter deficient cells.
First, the RA2.6 cells were cultured overnight at 26° C. to accumulate HLA-A0206 molecules that were unbound to peptides on the cell surface. A peptide serial dilution was added thereto for binding at room temperature for 30 minutes.
Subsequently, the mixture was cultured for 3.5 hours at 37° C. to denature the empty HLA-A0206 molecules that were unbound to peptides. As a result, the HLA-A0206 molecules lost their steric structure.
Either the fluorescent labeled monoclonal antibody 17A10 or 17A12, which specifically recognizes a peptide-bound HLA-A0206 molecule, was added thereto. The mixture was incubated on ice for 20 minutes, and the cells were stained.
Subsequently, the amount of fluorescence per cell was measured by using a flow cytometer. The dissociation constant, Kd value, was calculated by using the method published in the research article (Udaka et al., Immunogenetics, 51, 816-828, 2000).

[3] = molecular target: HLA-A2 molecule (the product of HLA-A*0201 gene) (Homo sapiens, UniProt P04439, D140Y/D185E/D98H/E176V/E277Q/G131W/G231S/I119V/I121R/I166T/I218V/L300P/L318F/N151K/N90K/P208A/P217A/Q86G/Q94H/R138H/R169H/T345S); assay: Binding experiment of the peptides to an HLA-A0201 molecule (JY cells, flow cytometry)
Procedure: After neutralization, a reassemble experiment was performed.
The above JY cells and purified β 2 m were added to a serial dilution of the peptide whose binding affinity was to be measured. Then, the mixture was incubated on ice for 4 hours.

Sequence | binding affinity to a human HLA-A type molecule (in words) [1] | Kd [2] [µM] | Kd [3] [µM]
ALVAFLRFL [SEQ ID NO 21] | experimentally confirmed to have binding affinity | 1.08 | 
NLVRLQSGV [compound 30] |  |  | 20.1
SVIEKMEAL [compound 48] |  | 0.422 | 
FQPESPSKL [compound 36] |  |  | 0.487
LALLAAFKV [compound 43] |  | 0.341 | 
IVLEHGSCV [compound 27] |  |  | 1.83
YVVIAILTV [compound 47] |  | 1.38 | 
SLRPQPTEL [compound 34] |  |  | 8.91
ALHQVFGAI [compound 38] |  |  | 0.17
FLIDGPETA [compound 35] |  |  | 0.883
HVLGRLITV [compound 45] |  | 0.557 | 
ILIRTGLLV [compound 33] |  |  | 0.298
QILEENVEV [compound 50] |  | 2.48 | 
PLNEAIMAV [compound 29] |  |  | 0.32
IVLEHGSCV [compound 46] |  | 0.952 | 
YMPSVIEKM [compound 39] |  |  | 0.266
LLFKTENGV [compound 28] |  |  | 0.0335
LVISGLFPV [compound 41] |  | 0.245 | 
ELPETLETL [compound 40] |  |  | 0.474
